Reference: patent US10464896B2, “Efflux-pump inhibitors and therapeutic uses thereof” (Basilea Pharmaceutica International AG, priority 2015, dated 2019)

tested on: E. coli ATCC25922; assay: Antibacterial activity in combination with minocycline (growth inhibition); format: cell-based; settings: Escherichia coli, ATCC25922, compound at 25 μM; minocycline 0.25 μg/mL; OD625 23 h minus 1 h; read-out: residual growth of E. coli ATCC25922 (% of uninhibited control) with minocycline
Experimental: Antibacterial activity in combination with minocycline or with linezolid
Inhibition of growth was measured with E. coli ATCC25922 and P. aeruginosa PAO1 in a 96-well plate format. Cation-adjusted Müller-Hinton broth (caMHB) was inoculated with an overnight culture and incubated at 37° C. on a shaker until OD625 reached 0.6 to 0.7. Density was adjusted to OD600=0.5 by addition of caMHB. 35 μL of the suspension were diluted to 35 mL with caMHB and supplemented with minocycline at the subinhibitory doses of 0.25 μg/mL for E. coli and 8 μg/mL for P. aeruginosa or with linezolid at the subinhibitory dose of 128 μg/mL for E. coli and P. aeruginosa. Each well contained 1 μL of test compound in 100 μL caMHB with minocycline or with linezolid.
Plates were incubated at 37° C. on a plate shaker. OD625 was measured at 1 h, 6 h, and at 23 h.
The difference between OD at 23 h and at 1 h was taken as measure for cell density and compared to controls without inhibitor (i.e. uninhibited control). Results were expressed as residual growth (% of uninhibited control). Enhancement of minocycline or linezolid activity caused reduced residual growth.

SMILES	activity at 25 µM [%]
CC(C)COc1ccc(OCc2ccc(Cl)cc2Br)cc1CNCC1CCNC1 (stereo not drawn) [Example 416]	≤ 10
Clc1ccc(COc2cc(CNCC3CNC3)cc(OCCc3c[nH]cn3)c2)c(Br)c1 [Example 252]	≤ 10
CC(NCC1CNC1)c1ccc(OCc2ccc(Cl)cc2Br)cc1 (stereo not drawn) [Example 105]	≤ 10
N#Cc1cncc(/C=C/c2cc(OCc3ccccc3)cc(CNCC3CCNC3)n2)c1 (stereo not drawn) [Example 446]	≤ 10
C=CCOc1cc(CNCC2CNC2)cc(CSc2ccc(Cl)cc2C(F)(F)F)c1 [Example 183]	≤ 10
C=CCOc1cc(/C=C/c2ccc(C(F)(F)F)cc2C#N)cc(CNCC2CNC2)c1 [Example 311]	≤ 10
Clc1ccc(COc2ccccc2CCNCC2CNC2)c(Br)c1 [Example 125]	≤ 10
Clc1ccc(COc2cccc(CNCC3CCNC3)c2)c(I)c1 (stereo not drawn) [Example 230]	≤ 10
Clc1ccc(CSc2cccc(CNCC3CNC3)c2)c(Br)c1 [Example 51, N-(azetidin-3-ylmethyl)-1-[3-[(2-bromo-4-chloro-phenyl)methylsulfanyl]phenyl]methanamine]	≤ 10
FC(F)(F)c1cc(CNCC2CNC2)cc(OCc2ccc(Cl)cc2Br)c1 [Example 104]	≤ 10
CC(C)COc1cc(CNCC2CCNC2)cc(OCc2ccc(C(F)(F)F)cc2F)c1 (stereo not drawn) [Example 271]	≤ 10
C=CCOc1cc(CNCC2CCNC2)cc(CSc2ccc(Cl)cc2Br)c1 (stereo not drawn) [Example 194]	≤ 10
Fc1ccc(COc2cccc(CNCC3CNC3)c2)c(F)c1 [Example 34]	≤ 10
Clc1ccc(/C=C/c2cc(CNCC3CCNC3)cc(OCc3c[nH]cn3)c2)c(Br)c1 (stereo not drawn) [Example 344]	≤ 10
CC(C)COc1cc(CNCC2CCNC2)cc(OCc2ccc(Cl)cn2)c1 (stereo not drawn) [Example 267]	≤ 10
Clc1ccc(COc2ccccc2CCNCC2CCNC2)c(Br)c1 (stereo not drawn) [Example 123]	≤ 10
CC(C)(C)c1ccc(COc2cc(Cl)cc(CNC3CCNCC3)c2)cc1 [Example 226]	≤ 10
C=CCOc1cc(/C=C/c2ccc(Cl)cc2Br)cc(CNCC2CCNC2)c1 (stereo not drawn) [Example 178]	≤ 10
C=CCOc1cc(/C=C/c2ccc(Cl)cc2Br)cc(CNC(=O)[C@@H]2CCNC2)c1 [Example 367]	≤ 10
CC(C)COc1cc(CNCC2CCNC2)cc(OCc2ccc(C(C)(C)C)cc2Br)c1 (stereo not drawn) [Example 290]	≤ 10
Clc1ccc(COc2ccc(CNCC3CNC3)cc2)cc1Cl [Example 66]	≤ 10
CC(C)(C)c1ccc(COc2cccc(CNCC3CCNC3)c2)cc1 (stereo not drawn) [Example 216]	≤ 10
CC(C)COc1cc(CNCC2CCNC2)cc(OCc2ccc(C(F)(F)F)cc2)c1 (stereo not drawn) [Example 264]	≤ 10
Brc1ccccc1COc1ccc(CNCC2CCNCC2)cc1 [Example 72]	≤ 10
FC(F)(F)c1ccc(COc2cccc(CNCC3CNC3)c2)c(Cl)c1 [Example 49]	≤ 10
Fc1cc(CNCC2CNC2)cc(OCc2ccc(Cl)cc2Br)c1 [Example 103]	≤ 10
C=CCOc1cc(/C=C/c2ccnc(C#N)c2)cc(CNCC2CCNC2)c1 (stereo not drawn) [Example 324]	≤ 10

SMILES	activity at 25 µM [%]
Clc1ccc(/C=C/c2ccc(OCCc3c[nH]cn3)c(CNCC3CNC3)c2)c(Br)c1 [Example 471]	≤ 10
CC(C)(c1ccccc1)c1ccc(OCCCNCC2CCNCC2)cc1 [Example 31]	≤ 10
Cc1cc(COc2ccc(OCCCNCC3CNC3)c(/C=C/c3ccc(Cl)cc3Br)c2)no1 [Example 512]	≤ 10
N#Cc1ccc(/C=C/c2cccc(CNCC3CCNC3)c2)cc1C(F)(F)F (stereo not drawn) [Example 301]	≤ 10
Clc1ccc(OCCOc2ccc(CNCC3CNC3)cc2)c(Br)c1 [Example 96]	≤ 10
C=CCOc1cc(CNCC2CNC2)cc(CNC(=O)c2ccc(Cl)cc2Br)c1 [Example 376]	≤ 10
C=CCOc1ccc(OCCNCC2CNC2)c(/C=C/c2ccc(Cl)cc2Br)c1 [Example 212]	≤ 10
Clc1ccc(/C=C/c2cccc(OCCCNCC3CCNC3)c2)c(Br)c1 (stereo not drawn) [Example 202]	≤ 10
C=CCOc1ccc(OCc2ccc(Br)cc2Cl)cc1CNCC1CCNC1 (stereo not drawn) [Example 405]	≤ 10
Clc1ccc(/C=C\c2cc(CNCC3CNC3)cc(OCCN3CCOCC3)c2)c(Br)c1 [Example 242]	≤ 10
Clc1ccc(COc2ccc(Br)c(CNCC3CNC3)c2)c(Br)c1 [Example 97]	≤ 10
Clc1ccc(/C=C/c2cc(CNCC3CNC3)cc(OCCc3ccncc3)c2)c(Br)c1 [Example 260]	≤ 10
Clc1ccc(/C=C\c2cc(CNCC3CNC3)cc(OCCc3c[nH]cn3)c2)c(Br)c1 [Example 255]	≤ 10
C[N+](C)(Cc1cc(/C=C/c2ccc(Cl)cc2Br)cc(OCCc2c[nH]cn2)c1)CC1CCNC1 (stereo not drawn) [Example 398]	≤ 10
O=C(NCCNC(=O)C1CNC1)c1cc(/C=C/c2ccc(Cl)cc2Br)cc(OCCc2ccncc2)c1 [Example 515]	≤ 10
C=CCOc1cc(/C=C/c2ccc(C#N)cc2)cc(CNCC2CNC2)c1 [Example 284]	≤ 10
C=CCOc1ccc(OCCCNCC2CNC2)c(/C=C/c2ccc(Cl)cc2Br)c1 [Example 214]	≤ 10
Clc1ccc(CSc2ccc(CNCC3CNC3)cc2)c(Br)c1 [Example 133]	≤ 10
Clc1ccc(/C=C/c2cc(CNCC3CCNC3)cc(OCCN3CCOCC3)c2)c(Br)c1 (stereo not drawn) [Example 246]	≤ 10
C=CCOc1cc(/C=C/c2csc(C(C)C)n2)cc(CNCC2CNC2)c1 [Example 327]	≤ 10
CC(C)c1cc(CNCC2CCNC2)cc(OCc2ccc(Cl)cc2Br)c1 (stereo not drawn) [Example 217]	≤ 10
Clc1ccc(COc2cccc(CNCC3CNC3)c2)c(Br)c1 [Example 18]	≤ 10
Clc1ccc(COc2ccc(OCCc3c[nH]cn3)c(CNCC3CNC3)c2)c(Br)c1 [Example 465]	≤ 10
C=CCOc1cc(CNCC2CNC2)cc(CSc2ccc(Cl)cc2Br)c1 [Example 196]	≤ 10
Clc1ccc(C#Cc2cccc(CNCC3CCNC3)c2)c(Br)c1 (stereo not drawn) [Example 150]	≤ 10
Clc1ccc(OCc2cccc(CNCC3CNC3)c2)c(Br)c1 [Example 38]	≤ 10
Clc1ccc(/C=C/c2cc(CNCC3CCNC3)cc(OCCc3ccccn3)c2)c(Br)c1 (stereo not drawn) [Example 341]	≤ 10

same assay, conditions: Escherichia coli, ATCC25922, compound at 50 μM; minocycline 0.25 μg/mL; OD625 23 h minus 1 h; read-out: residual growth of E. coli ATCC25922 (% of uninhibited control) with minocycline

SMILES	activity at 50 µM [%]
[O-][S+](Cc1ccc(Cl)cc1Br)c1cccc(CNCC2CCNC2)c1 (stereo not drawn) [Example 137, 1-[3-[(2-bromo-4-chloro-phenyl)methylsulfinyl]phenyl]-N-(pyrrolidin-3-ylmethyl)methanamine]	≤ 50
Clc1ccc(-c2ccccc2CNCC2CCNC2)c(Br)c1 (stereo not drawn) [Example 69]	≤ 50
Clc1ccc(COc2ccccc2CNCC2CCNCC2)cc1 [Example 5]	≤ 50
C=CCOc1cc(CNCC2CCNC2)cc(OCc2cccnc2)c1 (stereo not drawn) [Example 417]	≤ 50
O=S(=O)(Cc1ccc(Cl)cc1Br)c1ccc(CNCC2CNC2)cc1 [Example 138]	≤ 50
Clc1ccc(COc2ccccc2CNCC2CNC2)cc1 [Example 22]	≤ 50
